These results are taken from US20090012103A1, “SUBSTITUTED HETEROCYCLIC COMPOUNDS” (priority 2007, published 2009).

The experiment has as its target wild-type human cardiac sodium channel, hNav1.5 (Homo sapiens, UniProt Q14524). Nature of the experiment: Late INa screening assay (late sodium current, PatchXpress whole cell patch clamp). Format: cell-based. The following applies: for inhibition at 10 µM: read-out: Late INa % blk. The protocol:
The late sodium current (Late INa) and peak sodium current (Peak INa) assays are performed on an automated electrophysiology platform, PatchXpress 7000A (MDS Analytical Technologies, Sunnyvale, Calif.), which uses the whole cell patch clamp technique to measure currents through the cell membrane of up to 16 cells at a time. The assay uses an HEK293 (human embryonic kidney) cell line heterologously expressing the wild-type human cardiac sodium channel, hNav1.5, purchased from Millipore (Billerica, Mass.). No beta subunits were coexpressed with the Na channel alpha subunit. […] Experiments are carried out at 24-27° C.
For both the Late INa and Peak INa assays, series resistance compensation is set to 50% and whole-cell compensation is performed automatically. […] Currents through open sodium channels are automatically recorded and stored in the DataXpress2 database (MDS Analytical Technologies, Sunnyvale, Calif.). Analysis is performed using DataXpress2 analysis software and data are compiled in Excel.
Compound stocks are routinely made in glass vials to 10 mM in dimethyl sulfoxide (DMSO). In some cases, when compounds are not soluble in DMSO, they are made in 100% ethanol. Stocks are sonicated as necessary. The extracellular solution for screening Late INa is composed of: 140 mM NaCl, 4 mM KCl, 1.8 mM CaCl2, 0.75 mM MgCl2, and 5 mM HEPES with pH adjusted to 7.4 using NaOH. The extracellular solution for screening Peak INa is composed of: 20 mM NaCl, 120 mM N-methyl-D glucamine, 4 mM KCl, 1.8 mM CaCl2, 0.75 mM MgCl2, and 5 mM HEPES with pH adjusted to 7.4 using HCl. The intracellular solution used to perfuse the inside of the cells for both the Late INa and Peak INa assays contains: 120 mM CsF, 20 mM CsCl, 5 mM EGTA, 5 mM HEPES and pH adjusted to 7.4 with CsOH. Compounds are diluted in extracellular solution to 10 μM in glass vials and then transferred to glass well plates before robotic addition to the cells. The 0 Na extracellular solution used at the end of each experiment for the Late INa and Peak INa assays to measure baseline current contains: 140 mM N-methyl-D-glucamine; 4 mM KCl; 1.8 mM CaCl2; 0.75 mM MgCl2; 5 mM HEPES and pH was adjusted to 7.4 with HCl.
For the Late INa assay, sodium channels are activated every 10 seconds (0.1 Hz) by depolarizing the cell membrane to −20 mV for 250 milliseconds (ms) from a holding potential of −120 mV.
All compounds are tested to determine their activity in blocking the late sodium current. Late INa current is generated by adding 10 μM Tefluthrin (pyrethroid) to the extracellular solution while recording Na currents. […] For some experiments, 50 nM ATX II (sea anemone toxin), another late INa activator, was used to generate the late component. […] Baseline current in the absence of Na^+ ions is measured at the end of each experiment (after two additions of 0 Na solution-see above) and is used to calculate the percent block by compound.

SMILES strings stand for the structures. Like-named read-outs stand apart in the source and are kept apart here.

Chain of wild-type human cardiac sodium channel, hNav1.5 (Q14524 whole entry): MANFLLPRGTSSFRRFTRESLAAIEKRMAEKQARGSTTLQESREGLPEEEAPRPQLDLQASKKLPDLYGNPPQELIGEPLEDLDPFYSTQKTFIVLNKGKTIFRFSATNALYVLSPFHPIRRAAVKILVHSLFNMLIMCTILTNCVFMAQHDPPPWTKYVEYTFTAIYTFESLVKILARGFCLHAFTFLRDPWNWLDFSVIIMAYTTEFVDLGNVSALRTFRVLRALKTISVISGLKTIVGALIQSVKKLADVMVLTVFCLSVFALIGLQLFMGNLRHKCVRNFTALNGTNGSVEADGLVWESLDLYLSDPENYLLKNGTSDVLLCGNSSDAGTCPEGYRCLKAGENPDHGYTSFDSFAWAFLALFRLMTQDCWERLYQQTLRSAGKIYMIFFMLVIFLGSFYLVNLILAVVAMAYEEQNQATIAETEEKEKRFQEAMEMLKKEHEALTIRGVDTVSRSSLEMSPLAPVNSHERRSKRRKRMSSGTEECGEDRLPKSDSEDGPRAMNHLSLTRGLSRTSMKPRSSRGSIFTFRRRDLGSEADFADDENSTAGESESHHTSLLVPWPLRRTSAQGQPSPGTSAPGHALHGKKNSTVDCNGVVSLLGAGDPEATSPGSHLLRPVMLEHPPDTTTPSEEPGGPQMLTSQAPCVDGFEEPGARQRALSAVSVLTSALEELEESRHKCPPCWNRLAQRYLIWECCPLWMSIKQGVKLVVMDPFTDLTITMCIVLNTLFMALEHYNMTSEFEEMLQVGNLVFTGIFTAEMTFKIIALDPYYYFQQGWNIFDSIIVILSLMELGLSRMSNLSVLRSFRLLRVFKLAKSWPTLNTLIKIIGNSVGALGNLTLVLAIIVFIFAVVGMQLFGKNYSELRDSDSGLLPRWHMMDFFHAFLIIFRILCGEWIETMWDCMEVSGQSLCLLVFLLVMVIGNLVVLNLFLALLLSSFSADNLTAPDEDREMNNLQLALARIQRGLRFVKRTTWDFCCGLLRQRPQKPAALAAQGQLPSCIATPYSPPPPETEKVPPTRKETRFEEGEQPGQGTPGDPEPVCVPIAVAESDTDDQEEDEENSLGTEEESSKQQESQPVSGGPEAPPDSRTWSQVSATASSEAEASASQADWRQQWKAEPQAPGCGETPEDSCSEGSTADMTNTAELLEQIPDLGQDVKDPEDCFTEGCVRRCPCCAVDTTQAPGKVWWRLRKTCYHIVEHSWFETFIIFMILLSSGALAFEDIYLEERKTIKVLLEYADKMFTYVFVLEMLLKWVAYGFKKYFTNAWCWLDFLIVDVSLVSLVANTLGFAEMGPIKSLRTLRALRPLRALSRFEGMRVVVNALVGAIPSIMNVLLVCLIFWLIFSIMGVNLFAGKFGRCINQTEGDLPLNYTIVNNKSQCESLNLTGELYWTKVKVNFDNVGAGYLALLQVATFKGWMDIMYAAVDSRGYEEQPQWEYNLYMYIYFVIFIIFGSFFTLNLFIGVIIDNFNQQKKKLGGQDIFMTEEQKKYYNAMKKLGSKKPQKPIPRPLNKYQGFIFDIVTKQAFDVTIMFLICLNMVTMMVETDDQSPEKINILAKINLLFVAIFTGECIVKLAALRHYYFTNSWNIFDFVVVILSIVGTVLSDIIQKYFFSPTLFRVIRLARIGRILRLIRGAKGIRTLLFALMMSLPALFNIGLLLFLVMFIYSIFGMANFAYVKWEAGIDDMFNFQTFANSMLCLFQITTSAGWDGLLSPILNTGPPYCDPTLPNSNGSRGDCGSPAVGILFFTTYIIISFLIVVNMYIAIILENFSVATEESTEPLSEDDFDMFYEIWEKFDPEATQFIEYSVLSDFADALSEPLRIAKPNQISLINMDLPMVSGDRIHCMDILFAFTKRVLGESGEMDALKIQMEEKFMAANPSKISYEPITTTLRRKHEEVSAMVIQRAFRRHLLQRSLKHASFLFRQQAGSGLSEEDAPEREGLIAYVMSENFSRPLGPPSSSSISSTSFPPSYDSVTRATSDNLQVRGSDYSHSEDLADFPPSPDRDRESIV

Take `CCOC(=O)C1=C(C)Nc2[nH]nc(-c3ccc(C)cc3)c2C1c1cccc2ccccc12` (stereo not drawn) [PT-073, ethyl 6-methyl-4-(naphthalen-1-yl)-3-p-tolyl-4,7-dihydro-1H-pyrazolo[3,4-b]pyridine-5-carboxylate]: under “compound at 10 μM”, the inhibition at 10 µM is -3.2%.

For `CCOC(=O)C1=C(C)Nc2[nH]ncc2C1c1cccc2ccccc12` (stereo not drawn) [PT-075, ethyl 6-methyl-4-(naphthalen-1-yl)-4,7-dihydro-1H-pyrazolo[3,4-b]pyridine-5-carboxylate], for the setting “compound at 10 μM”, the inhibition at 10 µM came out at 26.5%.

For `CC1=C(C(=O)OCc2ccccc2)C(c2cccc3ccccc23)c2c(-c3cccs3)n[nH]c2N1` (stereo not drawn) [PT-076, benzyl 6-methyl-4-(naphthalen-1-yl)-3-(thiophen-2-yl)-4,7-dihydro-1H-pyrazolo[3,4-b]pyridine-5-carboxylate], the inhibition at 10 µM (compound at 10 μM) is -4.3%.

In the case of `CC1=C(C(=O)OCc2ccccc2)C(c2cccc3ccccc23)c2c(-c3ccc(C)cc3)n[nH]c2N1` (stereo not drawn) [PT-077, benzyl 6-methyl-4-(naphthalen-1-yl)-3-p-tolyl-4,7-dihydro-1H-pyrazolo[3,4-b]pyridine-5-carboxylate], where the note is “compound at 10 μM”, the inhibition at 10 µM is -2.6%.

`Cc1ccc(-c2n[nH]c3c2C(c2cccc4ccccc24)C2=C(COC2=O)N3)cc1` (stereo not drawn) [PT-078]: the inhibition at 10 µM was 46.3%.

Take `O=C1OCC2=C1C(c1cccc3ccccc13)c1c(-c3ccco3)n[nH]c1N2` (stereo not drawn) [PT-080, 3-(furan-2-yl)-4-(naphthalen-1-yl)-7,8-dihydro-1H-furo[3,4-e]pyrazolo[3,4-b]pyridin-5(4H)-one]: the inhibition at 10 µM is 31.9%.

For the compound `Cc1n[nH]c2c1C(c1cccc3ccccc13)C1=C(COC1=O)N2` (stereo not drawn) [PT-081, 3-methyl-4-(naphthalen-1-yl)-7,8-dihydro-1H-furo[3,4-e]pyrazolo[3,4-b]pyridin-5(4H)-one], the inhibition at 10 µM (compound at 10 μM) was 16.6%.

On to `O=C1OCC2=C1C(c1cccc3ccccc13)c1cnn(-c3ccccc3)c1N2` (stereo not drawn) [PT-082, 4-(naphthalen-1-yl)-1-phenyl-7,8-dihydro-1H-furo[3,4-e]pyrazolo[3,4-b]pyridin-5(4H)-one], for which the inhibition at 10 µM (compound at 10 μM) turned out to be 43.1%.

Consider `Cc1nn(-c2ccccc2)c2c1C(c1cccc3ccccc13)C1=C(COC1=O)N2` (stereo not drawn) [PT-083, 3-methyl-4-(naphthalen-1-yl)-1-phenyl-7,8-dihydro-1H-furo[3,4-e]pyrazolo[3,4-b]pyridin-5(4H)-one], for which the inhibition at 10 µM (compound at 10 μM) amounted to 30%.

Take `O=C1OCC2=C1C(c1cccc3ccccc13)c1cn[nH]c1N2` (stereo not drawn) [PT-084, 4-(naphthalen-1-yl)-7,8-dihydro-1H-furo[3,4-e]pyrazolo[3,4-b]pyridin-5(4H)-one]: where the note is “compound at 10 μM”, the inhibition at 10 µM stood at 16.9%.

On to `CCOC(=O)C1=C(C)Nc2nccn2C1c1cccc2ccccc12` (stereo not drawn) [PT-087, ethyl 7-methyl-5-(naphthalen-1-yl)-5,8-dihydroimidazo[1,2-a]pyrimidine-6-carboxylate], for which the inhibition at 10 µM (compound at 10 μM) was 16.5%.

`CCOC(=O)C1=C(C)Nc2c(C#N)cnn2C1c1cccc2ccccc12` (stereo not drawn) [PT-091, ethyl 3-cyano-5-methyl-7-(naphthalen-1-yl)-4,7-dihydropyrazolo[1,5-a]pyrimidine-6-carboxylate]: the inhibition at 10 µM was 48.4%.

For `CCOC(=O)C1=C(C)OC(N)=C(C#N)C1c1ccco1` (stereo not drawn) [PT-092, ethyl 6-amino-5-cyano-4-(furan-2-yl)-2-methyl-4H-pyran-3-carboxylate], the inhibition at 10 µM (compound at 10 μM) is -0.2%.

As to `N#CC1=C(N)OC2=C(C(=O)CC2)C1c1ccc(Br)cc1` (stereo not drawn) [PT-093, 2-amino-4-(4-bromophenyl)-5-oxo-4,5,6,7-tetrahydrocyclopenta[b]pyran-3-carbonitrile], the inhibition at 10 µM (compound at 10 μM) is -2.6%.

With `CC1(C)CC(=O)C2=C(C1)OC(N)=C(C#N)C2c1cccc(C(=O)O)c1` (stereo not drawn) [PT-098, 3-(2-amino-3-cyano-7,7-dimethyl-5-oxo-5,6,7,8-tetrahydro-4H-chromen-4-yl)benzoic acid], the inhibition at 10 µM (compound at 10 μM) was -27.9%.

Turning to `CCOC(=O)C1=C(C)NC(C)=C(C(=O)OCC)C1c1ccc(C(=O)O)s1` [PT-112, 5-(3,5-bis(ethoxycarbonyl)-2,6-dimethyl-1,4-dihydropyridin-4-yl)thiophene-2-carboxylic acid], where the note is “compound at 10 μM”, the inhibition at 10 µM was -24.9%.

Take `CCOC(=O)c1c(C)nc(C)c(C(=O)OCC)c1-c1sc2ccccc2c1C` [PT-117, diethyl 2,6-dimethyl-4-(3-methylbenzo[b]thiophen-2-yl)pyridine-3,5-dicarboxylate]: the inhibition at 10 µM (compound at 10 μM) was determined as 38.9%.

`CCOC(=O)C1=C(C)NC(C)=C(C(=O)OCC)C1c1ccc(-c2ccc(Cl)cc2)o1` [PT-118, diethyl 4-(5-(4-chlorophenyl)furan-2-yl)-2,6-dimethyl-1,4-dihydropyridine-3,5-dicarboxylate]: the inhibition at 10 µM (compound at 10 μM) is -3.8%.

For the compound `CCOC(=O)C1=C(C)NC(C)=C(C(=O)OCC)C1c1ccc(-c2ccccc2C(F)(F)F)o1` [PT-119, diethyl 2,6-dimethyl-4-(5-(2-(trifluoromethyl)phenyl)furan-2-yl)-1,4-dihydropyridine-3,5-dicarboxylate], the inhibition at 10 µM (compound at 10 μM) worked out at 3.8%.

For the compound `CCOC(=O)C1=C(C)NC(C)=C(C(=O)OCC)C1c1ccoc1` [PT-120, diethyl 4-(furan-3-yl)-2,6-dimethyl-1,4-dihydropyridine-3,5-dicarboxylate], the inhibition at 10 µM (compound at 10 μM) is 25.7%.

On to `CCOC(=O)C1=C(C)NC(C)=C(C(=O)OCC)C1c1ccc(CC)o1` [PT-121, diethyl 4-(5-ethylfuran-2-yl)-2,6-dimethyl-1,4-dihydropyridine-3,5-dicarboxylate], for which the inhibition at 10 µM (compound at 10 μM) is 54.8%.

On to `COCCOC(=O)C1=C(C)NC(C)=C(C(=O)OCCOC)C1c1sccc1Br` [PT-125, bis(2-methoxyethyl) 4-(3-bromothiophen-2-yl)-2,6-dimethyl-1,4-dihydropyridine-3,5-dicarboxylate], for which the inhibition at 10 µM (compound at 10 μM) is 10.3%.

As to `CC1=C(C(=O)OC(C)C)C(c2ccc(-c3ccc(Cl)cc3)o2)C(C(=O)OC(C)C)=C(C)N1` [PT-126, diisopropyl 4-(5-(4-chlorophenyl)furan-2-yl)-2,6-dimethyl-1,4-dihydropyridine-3,5-dicarboxylate], where the note is “compound at 10 μM”, the inhibition at 10 µM was -39%.

`CC1=C(C(=O)OC(C)C)C(c2cnn(-c3ccc(F)cc3)c2C)C(C(=O)OC(C)C)=C(C)N1` [PT-127, diisopropyl 4-(1-(4-fluorophenyl)-5-methyl-1H-pyrazol-4-yl)-2,6-dimethyl-1,4-dihydropyridine-3,5-dicarboxylate]: the inhibition at 10 µM (compound at 10 μM) was determined as 1.1%.

On to `CC1=C(C(=O)OC(C)C)C(c2c[nH]nc2-c2ccc(F)cc2)C(C(=O)OC(C)C)=C(C)N1` [PT-128, diisopropyl 4-(3-(4-fluorophenyl)-1H-pyrazol-4-yl)-2,6-dimethyl-1,4-dihydropyridine-3,5-dicarboxylate], for which the “Late INa % blk” value (compound at 10 μM) stood at 34.1%.

As to `CC1=C(C(=O)OCc2ccccc2)C(c2ccc3ccccc3c2)C(C(=O)OCc2ccccc2)=C(C)N1` [PT-129, dibenzyl 2,6-dimethyl-4-(naphthalen-2-yl)-1,4-dihydropyridine-3,5-dicarboxylate], for the setting “compound at 10 μM”, the inhibition at 10 µM amounted to 17.6%.

As for `COc1ccc(COC(=O)C2=C(C)NC(C)=C(C(=O)OCc3ccc(OC)c(OC)c3)C2c2ccc3ccccc3c2)cc1OC` [PT-130, bis(3,4-dimethoxybenzyl) 2,6-dimethyl-4-(naphthalen-2-yl)-1,4-dihydropyridine-3,5-dicarboxylate], the inhibition at 10 µM (compound at 10 μM) was found to be 15.7%.
